Like-named read-outs stand apart in the source and are kept apart here.
How the values were obtained:
Assay type in all cases: in vivo
[1] = system: Musca domestica; test: Test Example 3: treated filter paper with sucrose bait, Musca domestica; conditions: read-out: rate of dead pests
Procedure: (§1) The formulation obtained according to Formulation Example 5 using the compound of the present invention (2), (3), (4), (6), (7), (8), (11), (12), (13), (15), (16), (19), (20), (21), (22), (28), (29), (30), (31), (32), (33), (34), (36), (37), (38) and (39) respectively, was diluted with water so that the active ingredient concentration came to 500 ppm to prepare a pesticidal solution for test.
(§2) On the bottom of a polyethylene cup having a diameter of 5.5 cm, a filter paper having the same diameter was laid, and 0.7 ml of the above pesticidal solution for test was added dropwise on the filter paper, followed by putting 30 mg of sucrose on it uniformly as a bait. Ten female Musca domestica imagoes were set free in the polyethylene cup and covered it with a lid. After 24 hours, the number of surviving and dead Musca domestica was examined and the rate of dead pests was calculated.

[2] = system: Blattella germanica; test: Test Example 4: treated filter paper with sucrose bait, Blattella germanica; conditions: 144 h, read-out: rate of dead pests
Procedure: as §1, with “(8), (9),” for “(8),”, “(16), (18),” for “(16),”, “(22), (27),” for “(22),”, “(34), (35),” for “(34),”, “(38), (43)” for “(38)”, “[…]” for “(39)”
as §2, with “Two male Blattella germanica” for “Ten female Musca domestica”, “6 days,” for “24 hours,”, “Blattella germanica” for “Musca domestica”

[3] = system: Culex pipiens pallens; test: Test Example 5: larvae in treated water, Culex pipiens pallens; conditions: 24 h, read-out: rate of dead pests
Procedure: The formulation obtained according to Formulation Example 5 using the compound of the present invention (1), (2), (3), (4), (5), (6), (7), (8), (9), (10), (11), (12), (13), (14), (15), (16), (17), (18), (19), (20), (21), (22), (23), (25), (27), (28), (29), […], (31), (32), (33), (34), (35), (36), (37), (38), (39), (41), (44), (45), (46), (47) and (48) respectively, was diluted with water so that the active ingredient concentration came to 500 ppm to prepare a pesticidal solution for test.
0.7 ml of above pesticidal solution for test was added to 100 ml of ion exchanged water (active ingredient concentration: 3.5 ppm). Twenty last-instar larvae of Culex pipiens pallens were set free in the solution. After one day, the number of surviving and dead Culex pipiens pallens was examined and the rate of dead pests was calculated.

[4] = 500 ppm, 0.7 ml on filter paper, ten female Musca domestica imagoes, after 24 hours
[5] = 500 ppm, 0.7 ml on filter paper, two male Blattella germanica imagoes, after 6 days
[6] = active ingredient concentration 3.5 ppm in water, twenty last-instar larvae of Culex pipiens pallens, after one day

C=CCC(C#N)(C#N)Cn1cc(Cl)cn1 [compound of the present invention (20), allyl [(4-chloro-1H-pyrazole-1-yl)methyl]malononitrile]
pest or weed control at 500 ppm [1, 4]: ≥ 90%
pest or weed control at 500 ppm [2, 5]: 100%
pest or weed control at 3.5 ppm [3, 6]: ≥ 95%

N#CC(C#N)(CCC(F)(F)F)Cn1cc(Br)c(C(F)(F)C(F)(F)F)n1 [compound of the present invention (37), [(4-bromo-3-(pentafluoroethyl)-1H-pyrazole-1-yl)methyl](3,3,3-trifluoropropyl) malononitrile]
pest or weed control at 500 ppm [1, 4]: ≥ 90%
pest or weed control at 500 ppm [2, 5]: 100%
pest or weed control at 3.5 ppm [3, 6]: ≥ 95%

N#CC(C#N)(CCC(F)(F)F)Cn1cnc(C(F)(F)C(F)(F)F)n1 [compound of the present invention (34), {[3-(pentafluoroethyl)-1H-1,2,4-triazole 1-yl]methyl}(3,3,3-trifluoropropyl) malononitrile]
pest or weed control at 500 ppm [1, 4]: ≥ 90%
pest or weed control at 500 ppm [2, 5]: 100%
pest or weed control at 3.5 ppm [3, 6]: ≥ 95%

CC(C)(C)c1nc(Br)n(CC(C#N)(C#N)CCC(F)(F)F)n1 [compound of the present invention (32), [(5-bromo-3-t-butyl-1H-1,2,4-triazole 1-yl)methyl](3,3,3-trifluoropropyl)malononitrile]
pest or weed control at 500 ppm [1, 4]: ≥ 90%
pest or weed control at 500 ppm [2, 5]: 100%
pest or weed control at 3.5 ppm [3, 6]: ≥ 95%

C=CCC(C#N)(C#N)Cn1cc(Br)c(C(F)(F)F)n1 [compound of the present invention (16)]
pest or weed control at 500 ppm [1, 4]: ≥ 90%
pest or weed control at 500 ppm [2, 5]: 100%
pest or weed control at 3.5 ppm [3, 6]: ≥ 95%

N#CC(C#N)(CCC(F)(F)F)Cn1ccc(C=O)n1 [compound of the present invention (8), [(3-formyl-1H-pyrazole-1-yl)methyl](3,3,3-trifluoropropyl) malononitrile]
pest or weed control at 500 ppm ([1]; Musca domestica, 24 h): ≥ 90%
pest or weed control at 500 ppm ([2]; Blattella germanica): 100%
pest or weed control at 3.5 ppm ([3]; Culex pipiens): ≥ 95%

N#CC(C#N)(CCC(F)(F)F)Cn1cc(Cl)cn1 [compound of the present invention (19), [(4-chloro-1H-pyrazole-1-yl)methyl](3,3,3-trifluoropropyl) malononitrile]
pest or weed control at 500 ppm [1, 4]: ≥ 90%
pest or weed control at 500 ppm [2, 5]: 100%
pest or weed control at 3.5 ppm [3, 6]: ≥ 95%

N#CC(C#N)(CCC(F)(F)F)Cn1ccc(C(F)(F)F)n1 [compound of the present invention (6), {[3-(trifluoromethyl)-1H-pyrazole-1-yl]methyl}(3,3,3-trifluoropropyl) malononitrile]
pest or weed control at 500 ppm [1, 4]: ≥ 90%
pest or weed control at 500 ppm [2, 5]: 100%
pest or weed control at 3.5 ppm [3, 6]: ≥ 95%

N#CC(C#N)(CCC(F)(F)F)Cn1ccc(C(F)(F)C(F)(F)F)n1 [compound of the present invention (36), {[3-(pentafluoroethyl)-1H-pyrazole-1-yl]methyl}(3,3,3-trifluoropropyl)malononitrile]
pest or weed control at 500 ppm [1, 4]: ≥ 90%
pest or weed control at 500 ppm [2, 5]: 100%
pest or weed control at 3.5 ppm [3, 6]: ≥ 95%

CC(C)(C)c1nn(CC(C#N)(C#N)CCC(F)(F)F)cc1Cl [compound of the present invention (13), [(4-chloro-3-t-butyl-1H-pyrazole-1-yl)methyl](3,3,3-trifluoropropyl) malononitrile]
pest or weed control at 500 ppm [1, 4]: ≥ 90%
pest or weed control at 500 ppm [2, 5]: 100%
pest or weed control at 3.5 ppm [3, 6]: ≥ 95%

CC(C)(C)c1ccn(CC(C#N)(C#N)CCC(F)(F)F)n1 [compound of the present invention (3), [(3-t-butyl-1H-pyrazole-1-yl)methyl](3,3,3-trifluoropropyl) malononitrile]
pest or weed control at 500 ppm [1, 4]: ≥ 90%
pest or weed control at 500 ppm [2, 5]: 100%
pest or weed control at 3.5 ppm [3, 6]: ≥ 95%

N#CC(C#N)(CCC(F)(F)F)Cn1cc(Br)cn1 [compound of the present invention (21), [(4-bromo-1H-pyrazole-1-yl)methyl](3,3,3-trifluoropropyl) malononitrile]
pest or weed control at 500 ppm [1, 4]: ≥ 90%
pest or weed control at 500 ppm [2, 5]: 100%
pest or weed control at 3.5 ppm [3, 6]: ≥ 95%

CC(C)c1ccn(CC(C#N)(C#N)CCC(F)(F)F)n1 [compound of the present invention (2), [(3-i-propyl-1H-pyrazole-1-yl)methyl](3,3,3-trifluoropropyl) malononitrile]
pest or weed control at 500 ppm [1, 4]: ≥ 90%
pest or weed control at 500 ppm [2, 5]: 100%
pest or weed control at 3.5 ppm [3, 6]: ≥ 95%

C=CCC(C#N)(C#N)Cn1cnc(C(C)(C)C)n1 [compound of the present invention (31), allyl [(3-t-butyl-1H-1,2,4-triazole-1-yl)methyl]malononitrile]
pest or weed control at 500 ppm [1, 4]: ≥ 90%
pest or weed control at 500 ppm [2, 5]: 100%
pest or weed control at 3.5 ppm [3, 6]: ≥ 95%

N#CC(C#N)(CCC(F)(F)F)Cn1cnc(C(F)(F)F)c1 [compound of the present invention (38), {[4-(trifluoromethyl)-1H-imidazole-1-yl]methyl}(3,3,3-trifluoropropyl) malononitrile]
pest or weed control at 500 ppm [1, 4]: ≥ 90%
pest or weed control at 500 ppm [2, 5]: 100%
pest or weed control at 3.5 ppm [3, 6]: ≥ 95%

N#CC(C#N)(CCC(F)(F)F)Cn1cc(C(F)(F)F)cn1 [compound of the present invention (22), {[4-(trifluoromethyl)-1H-pyrazole-1-yl]methyl}(3,3,3-trifluoropropyl) malononitrile]
pest or weed control at 500 ppm [1, 4]: ≥ 90%
pest or weed control at 500 ppm [2, 5]: 100%
pest or weed control at 3.5 ppm [3, 6]: ≥ 95%

CC(C)(C)c1ncn(CC(C#N)(C#N)CCC(F)(F)F)n1 [compound of the present invention (29), [(3-t-butyl-1H-1,2,4-triazole-1-yl)methyl](3,3,3-trifluoropropyl) malononitrile]
pest or weed control at 500 ppm [1, 4]: ≥ 90%
pest or weed control at 500 ppm [2, 5]: 100%
pest or weed control at 3.5 ppm [3, 6]: ≥ 95%
